Patent publication US10357525B2, “Use of a polysaccharide mixture for treating hyperglycemia” (TRINEO BIOTECHNOLOGY CO. LTD, priority 2017, dated 2019)

System: NIT-1 cells
Assay: STZ-induced apoptosis in NIT-1 cells, cell viability by MTT assay
Assay type: cell-based, mice
Settings: STZ 8 μM alone, FIG. 1
Method: Cells. Cell line used in the present study was pancreatic beta cell line NIT-1 ([…], BCRC). NIT-1 cells were cultured and maintained in Ham's F12K medium with 2 mM L-glutamine adjusted to contain 1.5 g/L sodium bicarbonate, 90%; heat-inactivated dialyzed fetal bovine serum(FBS), 10%; 100 units/mL penicillin G, 100 units/mL streptomycin (pH 7.4) and 1% non-essential amino acids(NEAA). were maintained in humidified environment comprising 5%CO2/95% air at 37° C.
NIT-1 cells were seeded into 96-well plates at a density of 1.0×10^5 cells per well and cultured in their normal growth media overnight. Next day, cells were incubated in the presence of streptozotocin (STZ) (8 μM) and the polysaccharide mixture (abbreviated as “FPA”, 100 μg/mL) of the present invention for 24 hrs, then cell viability was determined by MTT assay.
NIT-1 cells are pancreatic beta cell lines established from transgenic mice spontaneously developing beta-cell adenoma, thus, NIT-1 cells are suitable for hyperglycemia study for they are not responsive to glucose in the physiological range. […] Accordingly, the protective effect of the present polysaccharide mixture of example 1 on STZ-treated NIT-1 cells was evaluated by MTT assay. Result is illustrated in FIG. 1.

## CN(N=O)C(=O)N[C@H]1C(O)O[C@H](CO)[C@@H](O)[C@@H]1O (mixture of isomers) [STZ, streptozotocin]
  portion of NIT-1 cells died: about 60%
